In brackets after ≈: the same amount, converted by molar mass. Where two headings read alike, the source gives them in different places.
How the values were obtained:
[1] = iron overloaded patients, cited from earlier work
Non-oryzae Rhizopus = experiment: Deferasirox susceptibility testing (MIC/MFC), non-oryzae Rhizopus isolates; format: cell-based, Rhizopus spp.
Description: (§1) Minimum inhibitory concentration (MIC) and minimum fungicidal concentration (MFC) were determined for deferasirox by the method of Espinel-Ingroff using R. oryzae spores starved for iron (Espinel-Ingroff, (2001), supra). Cidality was defined as a <4-fold difference between MIC and MFC.
(§2) We next determined the deferasirox susceptibilities of multiple clinical isolates of Mucorales (Table 3). The MIC9OS of deferasirox against Mucor, non-oryzae Rhizopus spp., and R. oryzae were 3.12 to 6.25 μg/ml. MFCs were similar to MICs, and deferasirox was cidal for 28/29 (97%) of isolates. Of note, slight growth was seen within the first twelve hours even at extremely high concentrations of deferasirox. […] Furthermore, the MICs and MFCs of deferasirox against these isolates were well below clinically achievable peak (˜38 μg/ml) and trough serum levels (˜17 μg/ml) of the drug at steady state when administered at the FDA-approved starting dose (20 mg/kg/d).

R. oryzae = experiment: Survival of diabetic ketoacidotic (DKA) mice infected with R. oryzae; format: in vivo, BALB/c male mice; conditions: DKA mice; for survival compared to controls: 2.2×10^4 spores R. oryzae 99-892, 1, 3, or 10 mg/kg bid for seven days; for 28 day survival: R. oryzae 99-892
Description: Briefly, for in vivo infection, BALB/c male mice (>20 g) were rendered diabetic with a single i.p. injection of 210 mg/kg streptozotocin in 0.2 ml citrate buffer 10 days prior to fungal challenge. […] Mice were infected through the tail vein with the appropriate inocula of R. oryzae. To confirm the inocula, dilutions were streaked on PDA plates and colonies were counted following a 24 h incubation period at room temperature. The primary efficacy endpoint was time to death. As a secondary endpoint, brain fungal burden (the primary target organ) was determined by homogenization by rolling a pipette on organs placed in Whirl-Pak bags (Nasco, Fort Atkinson, Wis.) containing 2 ml saline. The homogenate was serially diluted in 0.85% saline and then quantitatively cultured on PDA. Values were expressed as log 10 cfu g^−1 tissue. All procedures involving mice were approved by the institutional animal use and care committee, following the National Institutes of Health guidelines for animal housing and care.
Deferiprone (Apotex Research Inc.) was dissolved in iron-free water and administered intraperitoneally at 50, 100, or 200 mg/kg qd or qod (every other day). Treatment was begun 24 h post infection and continued for a total of 4 doses. Control groups were treated with the diluent, 5% dextrose water.
Deferiprone is known to form molecular complexes with ferric iron (^3+Fe) in a 1:3 ratio of iron to deferiprone. Based on the known molecular weights of ferric chloride (FeCl3, molecular weight 162.22 g/mol) and deferiprone (molecular weight 139 g/mol), a 60 mg/kg dose of FeCl3 was calculated to result in a significant excess of ^3+Fe vs. a 100 mg/kg dose of deferiprone given to an 18 g mouse: ^3+Fe moles=(0.060 g/kg*0.018 kg [mouse weight]/162.22 g/mol)=6.5×10^−6 mol vs. deferiprone moles=(0.1 g/kg*0.018 kg [mouse weight]/139 g/mol)=1.3×10^−5 mol Ratio=1:2 moles of ^3+Fe to deferiprone, which is more than that required to achieve a saturating 1:3 ratio.
Statistical analysis was performed using the nonparametric log rank test was used to determine differences in survival times of the mice. Differences in tissue fungal burdens in the infected organs were compared by the nonparametric Steel test for multiple comparisons. P values of <0.05 were considered significant.
Deferasirox (Novartis Pharmaceuticals, Basel, Switzerland) was suspended in 0.5% hydroxypropylcellulose (Klucel) and administered by oral gavage at 1, 3, or 10 mg/kg […] (qd) or every other day (qod). Treatment was begun 24 h post infection and continued for a total of 5 or 7 doses. Control groups were treated with the diluent, 5% dextrose water and 0.5% Klucel. In some experiments, a saturating dose of free iron was administered with deferasirox. Deferasirox is known to form molecular complexes with ferric iron (^3+Fe) in a 1:2 ratio of iron to deferasirox. Based on the known molecular weights of ferric chloride (FeCl3, molecular weight 162.22 g/mol) and deferasirox (molecular weight 373.4 g/mol), a 2.8 mg/kg dose of FeCl3 was calculated to result in a significant excess of ^3+Fe vs. a 10 mg/kg dose of deferasirox given to an 18 g mouse: ^3+Fe moles=(0.0028 g/kg*0.018 kg [mouse weight]/162.22 g/mol)=3×10^−7 mol vs. deferasirox moles=(0.01 g/kg*0.018 kg [mouse weight]/373.4 g/mol)=5×10^−7 mol Ratio=1:1.7 moles of ^3+Fe to deferasirox, which is more than that required to achieve a saturating 1:2 ratio.
The nonparametric log rank test was used to determine differences in survival times of the mice. Differences in tissue fungal burdens, splenic lymphocyte frequencies, and whole organ cytokines in the infected organs were compared by the Mann Whitney U test. P values of <0.05 were considered significant.

Mucorales = experiment: Deferasirox susceptibilities of multiple clinical isolates of Mucorales (summary); format: cell-based
Description: as §1, §2

[2] = 24 h, R. microsporus ATCC 62417
[3] = 48 h, R. microsporus ATCC 62417
[4] = Non-oryzae Rhizopus MIC90/MFC90, 24 h
[5] = Non-oryzae Rhizopus MIC90/MFC90, 48 h
[6] = Rhizopus, 24 h, Rhizopus sp. 99-1150
[7] = Rhizopus, 24 h, Rhizopus sp. 99-1700
[8] = Rhizopus, 48 h, Rhizopus sp. 99-1150
[9] = Rhizopus, 48 h, Rhizopus sp. 99-1700
[10] = Rhizopus, ATCC20577, 24 h, Rhizopus sp. ATCC 20577, 24 h
[11] = Rhizopus, ATCC20577, 48 h, Rhizopus sp. ATCC 20577, 48 h

**Q.** Which tolerability ([1]; chronic dosing over months to years, up to 30 mg/kg/d) does the source give for `O=C(O)c1ccc(-n2nc(-c3ccccc3O)nc2-c2ccccc2O)cc1` [Deferasirox, 4-[3,5-Bis(2-hydroxyphenyl)-1H-1,2,4-triazol-1-yl]-benzoic acid] here?
**A.** The tolerability was “very well tolerated”.

**Q.** And the tolerability ([1]; up to 40 mg/kg/d for up to 12 days)?
**A.** Its tolerability is “very well tolerated”.

**Q.** What about the MFC (Non-oryzae Rhizopus; [2]) of the same compound?
**A.** Its MFC is 0.39 µg/mL (≈ 1.04 µM).

**Q.** And the MIC (Non-oryzae Rhizopus; [2])?
**A.** The MIC was 0.39 µg/mL (≈ 1.04 µM).

**Q.** What about the MFC (Non-oryzae Rhizopus; [3]) of the same compound?
**A.** The MFC was 0.39 µg/mL (≈ 1.04 µM).

**Q.** And the MIC (Non-oryzae Rhizopus; [3])?
**A.** The MIC was 0.39 µg/mL (≈ 1.04 µM).

**Q.** What about the “Fungicidal?” value (Non-oryzae Rhizopus; [4]) of the same compound?
**A.** The value was “Y (Cidal = MFC/MIC ≦ 4)”.

**Q.** What about the MFC90 (Non-oryzae Rhizopus; [4]) of the same compound?
**A.** The MFC90 was 6.25 µg/mL (≈ 16.7 µM).

**Q.** What about the MIC90 (Non-oryzae Rhizopus; [4]) of the same compound?
**A.** Its MIC90 is 6.25 µg/mL (≈ 16.7 µM).

**Q.** And the “Fungicidal?” value (Non-oryzae Rhizopus; [5])?
**A.** The value was “Y (Cidal = MFC/MIC ≦ 4)”.

**Q.** What about the MFC90 (Non-oryzae Rhizopus; [5]) of the same compound?
**A.** The MFC90 was 6.25 µg/mL (≈ 16.7 µM).

**Q.** What about the MIC90 (Non-oryzae Rhizopus; [5]) of the same compound?
**A.** The MIC90 was 3.12 µg/mL (≈ 8.36 µM).

**Q.** What about the “Fungicidal?” value (Non-oryzae Rhizopus; R. microsporus ATCC 62417, 24 h) of the same compound?
**A.** The value was “Y (Cidal = MFC/MIC ≦ 4)”.

**Q.** And the “Fungicidal?” value (Non-oryzae Rhizopus; R. microsporus ATCC 62417, 48 h)?
**A.** The value was “Y (Cidal = MFC/MIC ≦ 4)”.

**Q.** What about the “Fungicidal?” value (Non-oryzae Rhizopus; Rhizopus sp. 99-1150, 24 h) of the same compound?
**A.** Its value is “Y (Cidal = MFC/MIC ≦ 4)”.

**Q.** And the “Fungicidal?” value (Non-oryzae Rhizopus; Rhizopus sp. 99-1150, 48 h)?
**A.** Its value is “Y (Cidal = MFC/MIC ≦ 4)”.

**Q.** And the “Fungicidal?” value (Non-oryzae Rhizopus; Rhizopus sp. 99-1700, 24 h)?
**A.** Its value is “Y (Cidal = MFC/MIC ≦ 4)”.

**Q.** And the “Fungicidal?” value (Non-oryzae Rhizopus; Rhizopus sp. 99-1700, 48 h)?
**A.** Its value is “Y (Cidal = MFC/MIC ≦ 4)”.

**Q.** What about the “Fungicidal?” value (Non-oryzae Rhizopus; Rhizopus sp. ATCC 20577, 24 h) of the same compound?
**A.** The value was “Y (Cidal = MFC/MIC ≦ 4)”.

**Q.** And the “Fungicidal?” value (Non-oryzae Rhizopus; Rhizopus sp. ATCC 20577, 48 h)?
**A.** The value was “Y (Cidal = MFC/MIC ≦ 4)”.

**Q.** And the MFC (Non-oryzae Rhizopus; [6])?
**A.** The MFC was 6.25 µg/mL (≈ 16.7 µM).

**Q.** What about the MIC (Non-oryzae Rhizopus; [6]) of the same compound?
**A.** Its MIC is 6.25 µg/mL (≈ 16.7 µM).

**Q.** What about the MFC (Non-oryzae Rhizopus; [7]) of the same compound?
**A.** The MFC was 6.25 µg/mL (≈ 16.7 µM).

**Q.** What about the MIC (Non-oryzae Rhizopus; [7]) of the same compound?
**A.** Its MIC is 6.25 µg/mL (≈ 16.7 µM).

**Q.** What about the MFC (Non-oryzae Rhizopus; [8]) of the same compound?
**A.** Its MFC is 3.12 µg/mL (≈ 8.36 µM).

**Q.** What about the MIC (Non-oryzae Rhizopus; [8]) of the same compound?
**A.** Its MIC is 3.12 µg/mL (≈ 8.36 µM).

**Q.** What about the MFC (Non-oryzae Rhizopus; [9]) of the same compound?
**A.** The MFC was 1.56 µg/mL (≈ 4.18 µM).

**Q.** What about the MIC (Non-oryzae Rhizopus; [9]) of the same compound?
**A.** Its MIC is 1.56 µg/mL (≈ 4.18 µM).

**Q.** What about the MFC (Non-oryzae Rhizopus; [10]) of the same compound?
**A.** Its MFC is 6.25 µg/mL (≈ 16.7 µM).

**Q.** What about the MIC (Non-oryzae Rhizopus; [10]) of the same compound?
**A.** Its MIC is 3.12 µg/mL (≈ 8.36 µM).

**Q.** And the MFC (Non-oryzae Rhizopus; [11])?
**A.** The MFC was 6.25 µg/mL (≈ 16.7 µM).

**Q.** And the MIC (Non-oryzae Rhizopus; [11])?
**A.** The MIC was 3.12 µg/mL (≈ 8.36 µM).

**Q.** And the “time to death compared to placebo” value (R. oryzae; 1.3×10^3 spores R. oryzae 99-880, 10 mg/kg bid seven days)?
**A.** The value was “significantly improved time to death”.

**Q.** And the “survival compared to controls” value (R. oryzae)?
**A.** The value was “significantly improved survival”.

**Q.** What about the “survival compared to controls” value (R. oryzae; listed as Exjade) of the same compound?
**A.** The value was “improves survival”.

**Q.** What about the survival (R. oryzae; R. oryzae 99-880, Deferasirox 10 mg/kg po twice daily, LAmB 15 mg/kg iv once daily 4 doses, or both, placebo 0%) of the same compound?
**A.** Its survival is 25%.

**Q.** What about the 28 day survival (R. oryzae; 1 mg/kg bid oral gavage 7 days, placebo 0%, p=0.03) of the same compound?
**A.** Its 28 day survival is 29%.

**Q.** What about the 28 day survival (R. oryzae; 3 mg/kg bid oral gavage 7 days, placebo 0%, p=0.049) of the same compound?
**A.** Its 28 day survival is 40%.

**Q.** What about the 28 day survival (R. oryzae; 10 mg/kg bid oral gavage 7 days, placebo 0%, p=0.01) of the same compound?
**A.** The 28 day survival was 57%.

**Q.** And the “protective effect on administration of free iron” value (R. oryzae; deferasirox plus saturating ferric chloride)?
**A.** Its value is “reversed”.

**Q.** And the “isolates for which deferasirox was cidal” value (Mucorales; 28/29 isolates)?
**A.** Its value is 97%.

**Q.** What about the MIC (Mucorales; Rhizopus arrhizus, read-out: MIC90s against Mucor, non-oryzae Rhizopus spp., and R. oryzae) of the same compound?
**A.** The MIC was 3.12 to 6.25 µg/mL (≈ 8.36 to 16.7 µM).

**Q.** And the dependence of cidality (Mucorales; slight growth within first twelve hours, fungi dead by 24 hours)?
**A.** The dependence of cidality was “time-dependent, rather than concentration-dependent”.

— patent US20100129434A1, “COMPOSITIONS AND METHODS FOR THE TREATMENT OF MUCORMYCOSIS AND OTHER FUNGAL DISEASES” (priority 2006, published 2010)
